The values below come from paper PMC6835155, “Lessons from LIMK1 enzymology and their impact on inhibitor design” (Biochemical Journal, 2019).

Molecules are shown by their SMILES. Structures can show the parent of a compound that is named as a salt.

One assay has as its target T1, LIMK1KD (Homo sapiens, UniProt P53667).
T1 construct: His6 (N, cleaved yes); made in house; host or cells: baculovirus; Sf9 for virus, TriEx insect cells for expression
Briefly: Differential (dynamic) scanning fluorimetry (DSF) assay, LIMK1KD. The assay is classed as binding. The note with it: 2 µM LIMK1KD, compound 10 µM, single shot; for ΔTm at 10 µM: read-out: TM Shift LIMK1 (K).

Another assay concerns the target T2, LIMK2KD (Homo sapiens, UniProt P53671).
T2 construct: The cDNA coding for LIMK2 residues 330 to 632 was PCR amplified; His6 (N, cleaved yes); made in house; host or cells: baculovirus; Sf9 for virus, TriEx insect cells for expression
Briefly: Differential (dynamic) scanning fluorimetry (DSF) assay, LIMK2KD. Format: binding. The note with it: LIMK2KD, compound 10 µM, single shot; for ΔTm at 10 µM: read-out: TM Shift LIMK2 (K).

T1 sequence (P53667 330-637): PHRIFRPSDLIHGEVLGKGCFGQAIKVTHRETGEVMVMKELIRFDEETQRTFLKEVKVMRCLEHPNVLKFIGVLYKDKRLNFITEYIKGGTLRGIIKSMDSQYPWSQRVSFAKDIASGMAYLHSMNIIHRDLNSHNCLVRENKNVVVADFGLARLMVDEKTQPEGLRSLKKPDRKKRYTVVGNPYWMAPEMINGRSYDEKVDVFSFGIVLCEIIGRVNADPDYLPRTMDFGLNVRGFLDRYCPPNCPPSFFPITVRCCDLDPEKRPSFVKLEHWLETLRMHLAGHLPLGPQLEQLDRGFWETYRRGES
T2 sequence (P53671 330-632): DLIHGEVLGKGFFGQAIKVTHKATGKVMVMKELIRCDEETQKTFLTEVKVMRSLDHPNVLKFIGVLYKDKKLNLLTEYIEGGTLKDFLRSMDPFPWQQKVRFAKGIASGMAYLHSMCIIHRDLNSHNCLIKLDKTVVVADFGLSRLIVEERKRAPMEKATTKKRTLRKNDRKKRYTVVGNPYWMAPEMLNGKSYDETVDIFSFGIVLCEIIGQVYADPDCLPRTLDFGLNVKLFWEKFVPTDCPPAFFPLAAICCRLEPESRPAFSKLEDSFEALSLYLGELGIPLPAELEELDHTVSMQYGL

For the compound `CNC(=O)c1ccccc1Nc1nc(Nc2ccc(N3CCOCC3)cc2OC)ncc1Cl` [TAE226 (NVP-TAE226)], the “TM Shift LIMK1 (K)” value at LIMK1KD was determined as 1.1 K. At LIMK2KD, the “TM Shift LIMK2 (K)” value is reported as 3.3 K.
`CC(C)(O)CC(=O)NCCn1ccc2ncnc(Nc3ccc(Oc4cccc(C(F)(F)F)c4)c(Cl)c3)c21` [TAK-285]: the ΔTm at 10 µM was -1.1 °C at LIMK1KD and 0 °C on LIMK2KD.
Turning to `N#Cc1c(Oc2ccc(F)c(NC(=O)Cc3cccc(C(F)(F)F)c3)c2)ccc2nc(NC(=O)C3CC3)sc12` [TAK-632], the “TM Shift LIMK1 (K)” value on LIMK1KD is recorded as 1.3 K. For the same compound, at LIMK2KD, the “TM Shift LIMK2 (K)” value is given as 3.2 K.
On to `CCc1nc(-c2cccc(C)c2)c(-c2ccnc(NC(=O)c3ccccc3)c2)s1` [TAK-715], for which the ΔTm at 10 µM is 0.4 °C at LIMK1KD and 2.6 °C at LIMK2KD.
For `Cn1c(=O)c(F)c(Nc2ccc(I)cc2F)c2c(=O)n(C[C@@H](O)CO)cnc21` [TAK-733] the same measures were -0.5 °C and 0.3 °C.
For `CCS(=O)(=O)c1cccc(-c2cc(C(=O)NC3CCN(C)CC3)c(C)c3[nH]c4ncc(C)cc4c23)c1` [TAK-901] the same measures were 3.7 °C and 0.3 °C.
Turning to `COc1ccc(C(=O)Nc2sc3c(c2C(N)=O)CCCC3)cc1OC` [TCS 359], the “TM Shift LIMK1 (K)” value at LIMK1KD came out at 1.3 K. The “TM Shift LIMK2 (K)” value at LIMK2KD is recorded as 1.1 K.
For `CCN1/C(=C/C(C)=O)Sc2ccc(OC)cc21` [TG003] the same measures were -1.0 K and -1.2 K.
For `Nc1nc(N)c2nc(-c3cccc(O)c3)c(-c3cccc(O)c3)nc2n1` [TG100-115] the same measures were 1.3 K and 2.4 K.
For the compound `Nc1nc(N)c2nc(-c3cccc(O)c3)cnc2n1` [TG100713], the “TM Shift LIMK1 (K)” value at LIMK1KD is given as 1.4 K. Further, the “TM Shift LIMK2 (K)” value on LIMK2KD is listed as 0.7 K.
As to `Cc1cnc(Nc2ccc(N3CCN(C)CC3)cc2)nc1Nc1cccc(S(=O)(=O)NC(C)(C)C)c1` [TG101209], the “TM Shift LIMK1 (K)” value on LIMK1KD was 2.4 K. Further, the “TM Shift LIMK2 (K)” value at LIMK2KD is 3.1 K.
Turning to `Cc1cnc(Nc2ccc(OCCN3CCCC3)cc2)nc1Nc1cccc(S(=O)(=O)NC(C)(C)C)c1` [TG101348 (SAR302503)], the “TM Shift LIMK1 (K)” value on LIMK1KD is recorded as 2.0 K. The “TM Shift LIMK2 (K)” value at LIMK2KD (10 µM) is 0.7 K.
`Cc1cc(C(C)Nc2ccccc2)c2nc(N3CCOCC3)cc(=O)n2c1` (centres unmarked) [TGX-221]: on LIMK1KD, the “TM Shift LIMK1 (K)” value worked out at 0.1 K. Also, the “TM Shift LIMK2 (K)” value on LIMK2KD came to 0.0 K.
For `Cc1ccccc1CN1C(=O)C2=C(CCN(Cc3ccccc3)C2)N2CCN=C12` [TIC10] the same measures were 0.5 K and -1.2 K.
For the compound `NC(=O)Nc1sc(-c2ccc(F)cc2)cc1C(N)=O` [TPCA-1], on LIMK1KD, the “TM Shift LIMK1 (K)” value was found to be 2.8 K. The “TM Shift LIMK2 (K)” value at LIMK2KD turned out to be 3.6 K.
As for `Nc1cccc(-c2cc3c(Oc4cccc(O)c4)ncnc3[nH]2)c1` [TWS119], the “TM Shift LIMK1 (K)” value at LIMK1KD was 5.2 K. Also, the “TM Shift LIMK2 (K)” value at LIMK2KD amounted to 4.1 K.
For the compound `COc1cc(Nc2ncc(F)c(Nc3ccc4c(n3)NC(=O)C(C)(C)O4)n2)cc(OC)c1OC` [Tamatinib], the ΔTm at 10 µM stood at 5.5 °C on LIMK1KD and 3 °C on LIMK2KD.
As to `COc1cc2c(N3CCN(C(=O)Nc4ccc(OC(C)C)cc4)CC3)ncnc2cc1OCCCN1CCCCC1` [Tandutinib (MLN518), Tandutinib], the ΔTm at 10 µM on LIMK1KD was 0.8 °C; at LIMK2KD it was 0 °C.
As for `CNC(=O)c1cc(COc2nnc(Nc3ccc(Cl)cc3)c3ccoc23)ccn1` [Telatinib], the ΔTm at 10 µM at LIMK1KD was -1.4 °C; on LIMK2KD, 3.3 °C.
`CO[C@H]1C[C@@H]2CC[C@@H](C)[C@@](O)(O2)C(=O)C(=O)N2CCCC[C@H]2C(=O)O[C@H]([C@H](C)C[C@@H]2CC[C@@H](OC(=O)C(C)(CO)CO)[C@H](OC)C2)CC(=O)[C@H](C)/C=C(\C)[C@@H](O)[C@@H](OC)C(=O)[C@H](C)C[C@H](C)/C=C/C=C/C=C/1C` [Temsirolimus (CCI-779, NSC 683864), Temsirolimus]: the ΔTm at 10 µM at LIMK1KD was -0.7 °C; at LIMK2KD, 0 °C.
On to `O=C(NCc1ccccc1)c1csc(Nc2ccncn2)n1` [Thiazovivin], for which the “TM Shift LIMK1 (K)” value on LIMK1KD is given as 1.1 K. The “TM Shift LIMK2 (K)” value at LIMK2KD was determined as 1.0 K.
Turning to `O=c1sn(-c2cccc3ccccc23)c(=O)n1Cc1ccccc1` [Tideglusib], the figures for the ΔTm at 10 µM at LIMK1KD and at LIMK2KD were -0.5 °C and 3.9 °C, respectively.
With `COc1ccc2cc(-c3nc(-c4ccc([S+](C)[O-])cc4)[nH]c3-c3ccncc3)ccc2c1` (centres unmarked) [Tie2 kinase inhibitor], on LIMK1KD, the “TM Shift LIMK1 (K)” value stood at 1.3 K. Moreover, the “TM Shift LIMK2 (K)” value at LIMK2KD turned out to be 1.4 K.
Regarding `O=C1NC(=O)[C@@H](c2cn3c4c(cccc24)CCC3)[C@@H]1c1c[nH]c2ccccc12` [Tivantinib], the results for the ΔTm at 10 µM at LIMK1KD and at LIMK2KD were 0 °C and 0.6 °C, respectively.
For the compound `COc1cc2nccc(Oc3ccc(NC(=O)Nc4cc(C)on4)c(Cl)c3)c2cc1OC` [Tivozanib (AV-951), Tivozanib], the ΔTm at 10 µM came to 1.1 °C at LIMK1KD and 1.5 °C at LIMK2KD.
With `C[C@@H]1CCN(C(=O)CC#N)C[C@@H]1N(C)c1ncnc2[nH]ccc12` [Tofacitinib (CP-690550) Citrate, Tofacitinib], the ΔTm at 10 µM at LIMK1KD is -0.4 °C; on LIMK2KD, 3.1 °C.
`CCC(=O)N1CCN(c2ccc(-n3c(=O)ccc4cnc5ccc(-c6cnc7ccccc7c6)cc5c43)cc2C(F)(F)F)CC1` [Torin 1]: the ΔTm at 10 µM at LIMK1KD is -0.2 °C; on LIMK2KD, 3.1 °C.
For the compound `Nc1ccc(-c2ccc3ncc4ccc(=O)n(-c5cccc(C(F)(F)F)c5)c4c3c2)cn1` [Torin 2], the “TM Shift LIMK1 (K)” value at LIMK1KD is -1.1 K. The “TM Shift LIMK2 (K)” value on LIMK2KD was -0.7 K.
As to `CC(=O)Nc1cccc(-n2c(=O)n(C3CC3)c(=O)c3c(Nc4ccc(I)cc4F)n(C)c(=O)c(C)c32)c1` [Trametinib (GSK1120212), Trametinib], the ΔTm at 10 µM is -0.2 °C at LIMK1KD and 0 °C on LIMK2KD.
On to `CC(C)(C)c1cc(C=C(C#N)C#N)cc(C(C)(C)C)c1O` [Tyrphostin 9], for which, at LIMK1KD, the “TM Shift LIMK1 (K)” value turned out to be 3.5 K. The “TM Shift LIMK2 (K)” value at LIMK2KD is on record as 6.3 K.
Consider `CC(C)(C)c1cc(/C=C(\C#N)C(N)=S)cc(C(C)(C)C)c1O` [Tyrphostin AG 879], for which the ΔTm at 10 µM at LIMK1KD amounted to 0.1 °C; on LIMK2KD, 1.2 °C.
`COc1cc2ncc(-c3ccccc3)nc2cc1OC` [Tyrphostin AG 1296]: on LIMK1KD, the “TM Shift LIMK1 (K)” value is recorded as 0.0 K. For the same compound, at LIMK2KD, the “TM Shift LIMK2 (K)” value is reported as -1.3 K.
In the case of `CCO.N#CC(=C(/N)Sc1ccccc1N)/C(C#N)=C(\N)Sc1ccccc1N` [U0126-EtOH], on LIMK1KD, the “TM Shift LIMK1 (K)” value is recorded as -1.1 K. For the same compound, the “TM Shift LIMK2 (K)” value on LIMK2KD was 2.4 K.
As for `CN[C@@H]1C[C@H]2O[C@@](C)([C@@H]1OC)n1c3ccccc3c3c4c(c5c6ccccc6n2c5c31)C(=O)N[C@H]4O` [UCN-01], on LIMK1KD, the “TM Shift LIMK1 (K)” value worked out at 1.2 K. Further, on LIMK2KD, the “TM Shift LIMK2 (K)” value came to 0.7 K.
Take `CS(=O)(=O)c1ccc(-c2cnc(N)c(C(=O)Nc3ccccc3)n2)cc1` [VE-821]: the figures for the ΔTm at 10 µM on LIMK1KD and on LIMK2KD were 0.8 °C and 1.5 °C, respectively.
In the case of `CNCc1ccc(-c2cc(-c3nc(-c4ccc(S(=O)(=O)C(C)C)cc4)cnc3N)on2)cc1` [VE-822], the figures for the ΔTm at 10 µM at LIMK1KD and at LIMK2KD were -0.5 °C and 0.5 °C, respectively.
On to `Cc1cnc(Nc2ccc(F)cc2Cl)nc1-c1c[nH]c(C(=O)N[C@H](CO)c2cccc(Cl)c2)c1` [VX-11E], for which, on LIMK1KD, the “TM Shift LIMK1 (K)” value was 0.0 K. Further, the “TM Shift LIMK2 (K)” value on LIMK2KD was -1.6 K.
For `Cc1cc(Nc2cc(N3CCN(C)CC3)nc(Sc3ccc(NC(=O)C4CC4)cc3)n2)[nH]n1` [VX-680 (Tozasertib, MK-0457), Tozasertib], the figures for the ΔTm at 10 µM at LIMK1KD and on LIMK2KD were 3.4 °C and 0 °C, respectively.
As to `NC(=O)c1ccc(N(C(N)=O)c2c(F)cccc2F)nc1-c1ccc(F)cc1F` [VX-702], the ΔTm at 10 µM at LIMK1KD was 0.6 °C; on LIMK2KD, -0.6 °C.
With `O=c1ncn2nc(Sc3ccc(F)cc3F)ccc2c1-c1c(Cl)cccc1Cl` [VX-745], the ΔTm at 10 µM was 0.6 °C at LIMK1KD and 1.3 °C on LIMK2KD.
For the compound `COc1cc2c(Nc3ccc(Br)cc3F)ncnc2cc1OCC1CCN(C)CC1` [Vandetanib (ZD6474), Vandetanib], the ΔTm at 10 µM on LIMK1KD and at LIMK2KD was 0.1 °C throughout.
As for `C[C@@H]1COC(Nc2ccc3ncnc(Nc4ccc(OCc5nccs5)c(Cl)c4)c3c2)=N1` [Varlitinib], the ΔTm at 10 µM on LIMK1KD was determined as 0.9 °C; on LIMK2KD, 0.8 °C.
For the compound `Clc1ccc(Nc2nnc(Cc3ccncc3)c3ccccc23)cc1` [Vatalanib (PTK787) 2HCl, Vatalanib], the ΔTm at 10 µM was -0.5 °C on LIMK1KD and -0.3 °C on LIMK2KD.
As for `CCCS(=O)(=O)Nc1ccc(F)c(C(=O)c2c[nH]c3ncc(-c4ccc(Cl)cc4)cc23)c1F` [Vemurafenib (PLX4032, RG7204), Vemurafenib], the ΔTm at 10 µM at LIMK1KD was found to be 1.5 °C; at LIMK2KD, 6 °C.
For `CC[C@@H]1C(=O)N(C)c2cnc(Nc3ccc(C(=O)N[C@H]4CC[C@H](N5CCN(CC6CC6)CC5)CC4)cc3OC)nc2N1C(C)C` [Volasertib (BI 6727), Volasertib] the same measures were 0.5 °C and 0.3 °C.
In the case of `CCn1c(=O)c(-c2cc[nH]n2)cc2c(C)nc(N)nc21` [Voxtalisib], the “TM Shift LIMK1 (K)” value on LIMK1KD is on record as 0.2 K. Besides, at LIMK2KD (10 µM), the “TM Shift LIMK2 (K)” value is listed as 0.4 K.
`c1cncc(CN2CCC(n3ncc4c(N5CCOCC5)nc(-c5ccc6[nH]ccc6c5)nc43)CC2)c1` [WAY-600]: on LIMK1KD, the “TM Shift LIMK1 (K)” value is on record as -0.1 K. Moreover, the “TM Shift LIMK2 (K)” value on LIMK2KD is -0.2 K.
For `COc1cc2ncnc(Nc3ccc(O)c(Br)c3)c2cc1OC` [WHI-P154] the same measures were 1.5 K and -0.2 K.
Turning to `C[C@H](NC(=O)/C(C#N)=C/c1cccc(Br)n1)c1ccccc1` [WP1066], the values for the ΔTm at 10 µM on LIMK1KD and on LIMK2KD were -0.3 °C and 0.4 °C, respectively.
